{"source": "paper PMC6018554", "about": "“2-[2-(4-(trifluoromethyl)phenylamino)thiazol-4-yl]acetic acid (Activator-3) is a potent activator of AMPK” (Scientific Reports, 2018)", "key": {"[1]": {"target": "T1, recombinant human AMPK α1β1γ1 (Homo sapiens, UniProt P54619)", "T1 construct": "purchased SignalChem P47-10H-05/P48-10H-05 (for all four isozymes together); host or cells: baculovirus expression", "test": "In vitro AMP kinase assay (pACC ELISA), α1β1γ1", "assay_type": "biochemical", "conditions": "AMP 1 µM to 300 µM with Activator-3 30 nM", "excerpt": "Having observed the effect of Activator-3 on the activation of AMPK in cell based assays, we next examined whether Activator-3 could activate AMPK directly or not. […] The activity of recombinant human AMPK (α1β1γ1, α2β1γ1, α2β2γ2 and α2β2γ3) in the presence of vehicle was considered as 100%. The EC50 of Activator-3 for the activation of α1β1γ1, α2β1γ1 and α2β2γ2 isozymes were similar. However, the activity of Activator-3 against α2β2γ3 was marginally higher (Fig. 1C).\n(§1) A high binding Enzyme Immuno Assay (EIA) 96-well plate (Sigma: Cat# CLS3590) was coated with Acetyl CoA Carboxylase 2 (ACC: 175–271 amino acids) peptide, a direct substrate for AMPK, 100 ng per well (1:1000 ratio, Cat# 12–491, Upstate biotechnology) and incubated overnight at 25 °C. Reaction mixture was incubated at 30 °C for 2 h and reaction was stopped by washing the plate with 0.05% Tween 20 followed by incubation with pACC primary antibody and rabbit secondary antibody as described in cell based ELISA section. Assay buffer is composed of 10 mM DTT, 100 mM magnesium acetate, 50 μM ATP and 10 mM HEPES."}, "[2]": {"system": "PFK1", "test": "PFK activity assay kit", "assay_type": "biochemical", "conditions": "AMP at 100 µM and 1 mM"}, "[3]": {"system": "human recombinant α1β1γ1 AMPK γ1 mutants (R70G, R152G)", "test": "In vitro kinase assay with mutant AMPK pulled down from HEK-293T cells", "assay_type": "biochemical", "conditions": "100 µM AMP; γ1 mutants", "protocol": "as §1\n(§2) R70 and R152 residues in AMPK γ1 subunit (pDONR223-PRKAG1: purchased from addgene, cat# plasmid#23718) are mutated to glycine using overlapping extension PCR. Subsequently, the mutants were transferred into a triple tagged destination vector (Streptavidin, Flag and Biotin; SFB-pDEST) by using gateway cloning technology. The mutant DNA was transfected into HEK-293T cells using PEI following standard procedures. After 4 h of transfection, media was changed to DMEM containing 10% FBS. Cells were lysed in TENNS lysis buffer (20 mM Tris pH:8.0, 100 mM NaCl, 1 mM EDTA, 10 mM Na2H2P2O7, 10 mM NaF, 10 mM Na3VO4, 0.5% NP40) and subjected to pull down using streptavidin beads followed by biotin elution. To protect the protein from dephosphorylation, cells were treated with 500 μM AICAR prior to lysis. This purified protein was estimated by using nanodrop and taken for in vitro kinase assay to check whether Activator-3 is binding to the mutant AMPK or not, and the activity of the mutant protein was assessed by comparing with the wild type protein activity."}, "[4]": {"target": "T2, human recombinant α1β1γ1 AMPK γ1 mutants (R70G, R152G) (Homo sapiens, UniProt P54619, R70G)", "T2 construct": "SFB triple tag (Streptavidin, Flag and Biotin; SFB-pDEST); host or cells: HEK-293T, streptavidin-bead pull-down with biotin elution", "T2 sequence (P54619 whole entry R70G)": "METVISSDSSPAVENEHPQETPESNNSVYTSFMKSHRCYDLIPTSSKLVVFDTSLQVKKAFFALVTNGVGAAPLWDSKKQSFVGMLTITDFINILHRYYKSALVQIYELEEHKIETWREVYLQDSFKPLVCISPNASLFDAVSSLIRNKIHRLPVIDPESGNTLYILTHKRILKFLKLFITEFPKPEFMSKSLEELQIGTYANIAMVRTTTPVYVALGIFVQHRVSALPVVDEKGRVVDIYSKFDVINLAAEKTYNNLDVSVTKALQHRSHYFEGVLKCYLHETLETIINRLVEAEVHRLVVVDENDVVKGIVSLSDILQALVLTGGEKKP", "T2 sequence (Q13131 whole entry partner)": "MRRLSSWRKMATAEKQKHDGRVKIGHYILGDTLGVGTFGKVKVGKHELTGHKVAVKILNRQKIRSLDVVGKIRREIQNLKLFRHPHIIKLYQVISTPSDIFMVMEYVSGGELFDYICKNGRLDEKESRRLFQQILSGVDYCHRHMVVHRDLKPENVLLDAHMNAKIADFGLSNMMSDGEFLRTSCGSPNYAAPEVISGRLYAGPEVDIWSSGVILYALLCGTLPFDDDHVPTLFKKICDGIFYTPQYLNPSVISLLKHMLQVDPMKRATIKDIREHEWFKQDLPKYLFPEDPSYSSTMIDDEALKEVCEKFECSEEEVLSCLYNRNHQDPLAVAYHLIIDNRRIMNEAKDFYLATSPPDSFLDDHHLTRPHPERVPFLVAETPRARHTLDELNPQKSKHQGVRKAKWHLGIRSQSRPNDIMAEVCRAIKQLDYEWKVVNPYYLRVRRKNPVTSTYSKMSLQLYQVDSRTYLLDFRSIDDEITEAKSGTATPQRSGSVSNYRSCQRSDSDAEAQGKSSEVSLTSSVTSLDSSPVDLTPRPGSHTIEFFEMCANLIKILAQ", "T2 sequence (Q9Y478 2-270 partner)": "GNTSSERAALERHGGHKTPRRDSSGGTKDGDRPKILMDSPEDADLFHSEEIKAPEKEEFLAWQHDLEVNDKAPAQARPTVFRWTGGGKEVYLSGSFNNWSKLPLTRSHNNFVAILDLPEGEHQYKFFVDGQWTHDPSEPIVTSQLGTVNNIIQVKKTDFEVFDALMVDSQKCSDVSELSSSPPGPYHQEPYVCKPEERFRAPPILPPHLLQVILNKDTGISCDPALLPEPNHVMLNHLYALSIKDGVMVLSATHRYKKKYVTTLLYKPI", "test": "In vitro kinase assay with mutant AMPK pulled down from HEK-293T cells", "assay_type": "biochemical", "conditions": "100 µM AMP; γ1 R70G", "protocol": "as §1, §2"}, "[5]": {"target": "T3, recombinant human AMPK α2β2γ2 (Homo sapiens, UniProt Q9UGJ0)", "T3 construct": "purchased SignalChem; host or cells: baculovirus expression", "set-up": "method as in PMID 28705990", "conditions": "cited from earlier work"}}, "data": [{"smiles": "Nc1ncnc2c1ncn2C1OC(COP(=O)(O)O)C(O)C1O", "note": "(centres unmarked) [AMP, reference compound]", "values": [{"measurement": "α1β1γ1 activity compared to 30 nM Activator-3 alone", "setting": "[1]", "value": "progressive enhancement"}, {"measurement": "effect on PFK1 activity", "setting": "[2]", "value": "activated"}, {"measurement": "AMPK activity of mutant proteins vs wild type", "setting": "[3]", "value": "significant reduction"}, {"measurement": "activation of AMPK, effect of R70G mutation", "setting": "[4]", "value": "did not impact"}]}, {"smiles": "O[C@@H]1CO[C@H]2[C@@H]1OC[C@H]2Oc1nc2nc(-c3ccc(-c4ccccc4)cc3)c(Cl)cc2[nH]1", "note": "[MK-8722]", "values": [{"measurement": "Emax compared to basal activity", "setting": "[5]", "value": "~ 250%"}]}]}
